Experimental data reported in patent publication US20230106238A1, “PHARMACEUTICAL COMPOSITION FOR PREVENTING OR TREATING NK/T-CELLLYMPHOMA OR NK-CELL LEUKEMIA, COMPRISING PHOSPHODIESTERASE TYPE 5 INHIBITOR” (SAMSUNG LIFE PUBLIC WELFARE FOUNDATION, priority 2020, published 2023).

Tests used:
Format in all cases: cell-based
[1] = tested on: Epstein-Barr virus (EBV) reactivation in 1A2 cell line (lymphoma); assay: EBV reactivation by romidepsin in 1A2 cell line (BZLF1/BRLF1 mRNA); details: romidepsin 1 or 10 nM, 72 hours
Description: (§1) EBV-positive cell lines other than SNK6 and NK92MI were collected to identify EBV reactivity by romidepsin and the effect of sildenafil. As EBV-positive cell lines, the Daudi cell line (ATCC, CCL-213) and Raji cell line (ATCC, CCL-86), which are Burkitt's lymphoma cells, and the 1A2 cell line (ATCC, CRL-8119), which is a lymphoma cell, were treated with 1 or 10 nM of romidepsin for 72 hours, and mRNA expression of BZLF1 and BRLF1, genes whose expression is increased in EBV reactivation, was identified. The results for BZLF1 mRNA expression of the Daudi cell line are shown in FIG. 3A, and the results for BRLF1 mRNA expression are shown in FIG. 3B. In addition, the results for BZLF1 mRNA expression of the Raji cell line are shown in FIG. 3C, and the results for BRLF1 mRNA expression are shown in FIG. 3D. In addition, the results for BZLF1 mRNA expression of the 1A2 cell line are shown in FIG. 3E, and the results for BRLF1 mRNA expression are shown in FIG. 3F.

[2] = tested on: Epstein-Barr virus (EBV) reactivation in NK/T-cell lymphoma cell line SNK6; assay: EBV reactivation by romidepsin in SNK6 cells (real-time PCR of BZLF1/BRLF1 mRNA, EBV copy number)
Description: (§2) The NK/T-cell lymphoma cell line SNK6 (source; Seoul National University) and the NK-cell leukemia cell line NK92MI (source; Seoul National University) were treated with the HDAC inhibitor, romidepsin 10 nM, and the PDE5 inhibitor, sildenafil 100 nM, for 24, 48, and 72 hours. After treatment, cells were harvested […]. Then, RNA was extracted using TRIzol reagent (Ambion, Life technologies), cDNA synthesis was performed using Omniscript RT kit (Qiagen), and the expression of BZLF1, an mRNA expressed during EBV reactivation, was identified through real-time PCR. The group treated with DMSO only was used as a control group.
(§3) BZLF1 mRNA expression was measured in the same manner as in Example 1, with a group treated with sildenafil alone and a group treated with 10 nM of romidepsin simultaneously at a concentration of sildenafil of 10, 100 or 1000 nM in SNK6 and NK92MI cells as experimental groups. The treatment time was 72 hours.
(§4) The inhibition of EBV reactivation by sildenafil (100 nM, 72 hours), which was shown by treatment with 10 nM of romidepsin in SNK6 and NK92MI cell lines for 72 hours, was measured through EBV copy number, BALF5, BZLF1, and BRLF1 expression. In addition, cell growth was measured by counting live cells through trypan blue staining. BALF5 is a gene with the function of generating viral DNA produced through EBV reactivation. DNA was extracted from the medium using QIAamp DNA mini kit (Qiagen) and real-time quantitative PCR was performed to measure […]. […] The results of measuring the number of EBV copies in the SNK6 cells identified as described above are shown in FIG. 5A, the expression of BZLF1 mRNA is shown in FIG. 5B, the expression of BRLF1 mRNA is shown in FIG. 5C, and the survival rate of tumor cells is shown in FIG. 5D. In addition, the expression of BRLF5 mRNA in NK92MI cells is shown in FIG. 6A, the expression of BZLF1 mRNA is shown in FIG. 6B, the expression of BRLF1 mRNA is shown in FIG. 6C, and the survival rate of tumor cells is shown in FIG. 6D.
BZLF1 and BRLF1 mRNA expressions were identified and measured by qPCR in the same manner as in Example 3.1 that EBV reactivation, which was shown by treatment of 10 nM of romidepsin in the SNK6 cell line, was inhibited by the PDE5 inhibitors of vardenafil, udenafil or tadalafil. In this connection, vardenafil was treated with 100 nM for 72 hours, udenafil was treated with 100 nM for 48 hours, and tadalafil was treated with 1000 nM for 24 hours. The expression of BZLF1 mRNA in the vardenafil-administered group is shown in FIG. 7A, and the expression of BRLF1 mRNA is shown in FIG. 7B. In addition, the expression of BZLF1 mRNA in the udenafil-administered experimental group is shown in FIG. 7C, and the expression of BRLF1 mRNA is shown in FIG. 7D. In addition, the expression of BZLF1 mRNA in the tadalafil-administered experimental group is shown in FIG. 7E, and the expression of BRLF1 mRNA is shown in FIG. 7F.

[3] = tested on: Epstein-Barr virus (EBV) reactivation in NK-cell leukemia cell line NK92MI; assay: EBV reactivation by romidepsin in NK92MI cells (real-time PCR of BZLF1/BRLF1/BALF5); details: 72 hours
Description: as §2, §3, §4

NK92MI cells = assay: Cell growth/viability by counting live cells through trypan blue staining, NK92MI; details: sildenafil 100 nM + romidepsin 10 nM, 72 hours; versus romidepsin alone
Description: as §4

SNK6 cells = assay: Cell growth/viability by counting live cells through trypan blue staining, SNK6; details: sildenafil 100 nM + romidepsin 10 nM, 72 hours; versus romidepsin alone
Description: as §4

[4] = tested on: Epstein-Barr virus (EBV) reactivation in Daudi cell line (Burkitt's lymphoma); assay: EBV reactivation by romidepsin in Daudi cell line (BZLF1/BRLF1 mRNA, EBV copy number); details: sildenafil 100 nM + romidepsin 10 nM simultaneously, 72 hours, versus romidepsin alone
Description: as §1
When sildenafil and romidepsin were simultaneously treated in the Daudi cell line, which is a cell line showing EBV reactivation by romidepsin identified in Example 3.1, an experiment was performed to determine whether EBV reactivation by romidepsin was inhibited. In the Daudi cell line, a group treated with 10 nM of romidepsin and 100 nM of sildenafil separately for 72 hours and a group treated therewith simultaneously were used as experimental groups, and a group treated with DMSO only was used as a control group. In order to measure the EBV copy number secreted out of the cell by EBV reactivation, by extracting DNA from the medium and measuring the Ct value by real-time PCR and comparing the same with the reference EBV number, the EBV copy number was measured and shown in FIG. 4A. In the same manner as in Example 3.1, BZLF1 mRNA expression was measured and shown in FIG. 4B, and BRLF1 mRNA was measured and shown in FIG. 4C.

[5] = SNK6 cell line, udenafil 100 nM for 48 hours with romidepsin 10 nM
[6] = NK92MI cell line, sildenafil 100 nM + romidepsin 10 nM, versus romidepsin alone
[7] = SNK6 cell line, sildenafil 100 nM + romidepsin 10 nM, 72 hours, versus romidepsin alone

How did the “expression of BRLF1 mRNA” value [1] turn out when C/C=C1\NC(=O)[C@H]2CSSCC/C=C/[C@H](CC(=O)N[C@H](C(C)C)C(=O)N2)OC(=O)[C@H](C(C)C)NC1=O [romidepsin] was run?
The value was “increased”.

And the “expression of BZLF1 mRNA” value [1]?
The value was “only the expression of BRLF1 was increased”.

Which results are given for CCCOc1ccc(S(=O)(=O)NCCC2CCCN2C)cc1-c1nc2c(CCC)nn(C)c2c(=O)[nH]1 (centres unmarked) [udenafil]?
BRLF1 mRNA expression [2, 5]: decreased; BZLF1 mRNA expression [2, 5]: decreased

Which “expression of BALF5” value [3, 6] does the source give for CCCc1nn(C)c2c(=O)[nH]c(-c3cc(S(=O)(=O)N4CCN(C)CC4)ccc3OCC)nc12 [sildenafil] here?
Its value is “decreased”.

What about the “expression of BRLF1 mRNA” value [3, 6] of the same compound?
The value was “decreased”.

What about the “expression of BZLF1 mRNA” value ([3]; NK92MI cells, sildenafil 100 nM together with romidepsin 10 nM, compared to romidepsin alone) of the same compound?
Its value is “significantly decreased”.

What about the “inhibition of EBV reactivation by romidepsin (BZLF1 mRNA expression)” value ([3]; NK92MI cells, sildenafil 10, 100 or 1000 nM in combination with romidepsin 10 nM) of the same compound?
Its value is “the effect of inhibiting the reactivation of EBV by romidepsin was observed”.

And the “viability of the NK92MI cell line (trypan blue)” value (NK92MI cells)?
Its value is “decreased”.

And the “viability of the SNK6 cell line (trypan blue)” value (SNK6 cells)?
The value was “decreased”.

And the EBV copy number [2, 7]?
The EBV copy number was “decreased”.

And the “expression of BRLF1 mRNA” value [2, 7]?
The value was “decreased”.

And the “expression of BZLF1 mRNA” value ([2]; SNK6 cells, sildenafil 100 nM together with romidepsin 10 nM, 72 hours, compared to romidepsin alone)?
Its value is “significantly decreased”.

What about the “inhibition of EBV reactivation by romidepsin (BZLF1 mRNA expression)” value ([2]; SNK6 cells, sildenafil 10, 100 or 1000 nM in combination with romidepsin 10 nM, 72 hours) of the same compound?
The value was “the effect of inhibiting the reactivation of EBV by romidepsin was observed”.

What about the “EBV copy number (DNA from the medium)” value [4] of the same compound?
Its value is “no significant difference”.

And the “expression of BRLF1 mRNA” value [4]?
Its value is “no significant difference”.

What about the “expression of BZLF1 mRNA” value [4] of the same compound?
The value was “no significant difference”.
